How the values were obtained:
PAMPA assay = type: in vitro ADME; conditions: pH 7.4
Experimental: PAMPA assay was performed by BioAssay Systems Services or Bristol Myers Squibb. The method used by BioAssay Systems Services is described below.
Stock solutions in DMSO for all compounds (10 mM) were thawed. The assay was performed in duplicate by following the PAMPA-096 procedure for sample plating. 4% Lecithin in dodecane solution was prepared by resuspending the dried lecithin with 750 μL dodecane. PBS pH 7.4 was used as the diluent. Two sets of plates and equilibrium solutions were incubated for 4 hours at room temperature. Acceptor and equilibrium solutions were analyzed in a UV plate. OD280 nm was used for High Permeability Control (chloramphenicol). OD270 nm was used for Medium Permeability Control (diclofenac) and Low Permeability Control (theophylline). OD254 nm was used for the test compounds.
Data analysis was performed by using the peak absorbance for each respective test compound and Permeability Control to determine the Permeability Rate (Pe) via the following equation: […]
where ODA is the absorbance of Acceptor Solution, ODE is the absorbance of the Equilibrium Standard, and C is determined by the equation below: […]
where Donor Volume (VD) is 0.2 cm^3, Acceptor Volume (VA) is 0.3 cm^3, and Membrane Area (Area) is 0.24 cm^2.

[1] = Metabolic stability assay, human liver microsomes (HLM); type: in vitro ADME; conditions: for half-life at 3 µM: pH 7.4, read-out: Liver Microsomes T1/2 (min) H
Excerpt: Controls were processed and analyzed like the test compounds.

CYP2D6 = target: T1, CYP2D6 (Homo sapiens, UniProt P10635); experiment: Fluorometric CYP450 inhibition assay, CYP2D6; type: in vitro ADME; conditions: read-out: CYP450 IC50 (μM) 2D6
T1 construct: purchased Corning; host or cells: insect cells (microsomes)
T1 sequence (P10635 whole entry): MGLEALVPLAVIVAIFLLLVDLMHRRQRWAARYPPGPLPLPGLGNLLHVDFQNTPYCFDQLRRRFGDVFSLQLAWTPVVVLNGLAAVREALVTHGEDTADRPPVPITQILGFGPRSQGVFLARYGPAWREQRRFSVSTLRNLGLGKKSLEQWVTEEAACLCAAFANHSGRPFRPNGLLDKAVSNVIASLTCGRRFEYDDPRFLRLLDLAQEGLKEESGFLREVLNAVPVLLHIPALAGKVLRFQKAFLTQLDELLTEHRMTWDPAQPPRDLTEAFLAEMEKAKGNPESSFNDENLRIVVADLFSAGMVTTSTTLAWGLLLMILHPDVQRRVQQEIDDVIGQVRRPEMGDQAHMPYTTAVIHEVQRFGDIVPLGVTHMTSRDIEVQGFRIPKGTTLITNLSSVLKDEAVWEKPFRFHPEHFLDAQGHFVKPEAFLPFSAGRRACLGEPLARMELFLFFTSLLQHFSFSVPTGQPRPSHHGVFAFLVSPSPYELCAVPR
Experimental: The CYP450 inhibition assays utilized microsomes from insect cells expressing human recombinant individual cDNA-expressed CYP isoforms 3A4 and 2D6, as well as the fluorogenic probe that produces fluorescent metabolite. Standard inhibitors were co-incubated with fluorogenic substrates and their inhibitory potential (IC50) was determined. Assay conditions in terms of CYP450 protein concentration and time of incubation were standardized, enzyme kinetics parameters of each fluorescent probe substrate were estimated and IC50 values of inhibitors were determined and validated on different days to check reproducibility.
A 100 mM sodium phosphate buffer was prepared and adjusted to pH 7.4. In a separate falcon tube, a 2× enzyme/substrate (E/S) solution was prepared in phosphate buffer. The final concentration of CYP2D6 (CORNING®) and 7-amido-4-methyl coumaric acid (AMMC) was 10 nM and 4 μM, and CYP3A4 (CORNING®) and 7-benzyloxy-4-(trifluoromethyl) coumarin (BFC) was 20 nM and 40 μM, respectively. In a separate falcon tube, a 2×NADPH regenerating system (NRS) was prepared in phosphate buffer.
Both enzymatic assays were conducted in a 96-well microtiter plate (Black, CORNING® COSTAR®) with a final volume of 100 μL. Preparation of the plate began with the addition of 74 μL of the E/S in the first well, and 50 μL to all subsequent wells (from 2-11). […] A 1:3 serial dilution of the test compound was conducted by removing 25 μL from the first well and diluting it with the second and so forth until the tenth row. Final concentrations yielded a range from 200 μM-0.01 μM. Well no. 11 contained no inhibitor, and well no. 12 contained no enzyme. Both were used as controls for background fluorescence. The plate was incubated for 30 min at 37° C. After incubation, the reaction was initiated by the addition of 50 μL of the 2×NRS to each well.
Immediately (within 1 min) the fluorescence was measured using a microplate reader (BIOTEK® Synergy Neo2). […] Data was exported and analyzed using Graph Pad Prism 7. […] The IC50 value was derived after the data was fitted on a 10-point curve using a four-parameter logistic regression model.

CXCR4 = CXCR4 (Homo sapiens, UniProt P61073); experiment: Calcium flux assay (antagonist mode, SDF-1α challenge); type: cell-based; parameters: Eurofins or Bristol Myers Squibb (contract assay); conditions: read-out: CXCR4 Ca^+2 Flux IC50
Chain of CXCR4 (P61073 whole entry): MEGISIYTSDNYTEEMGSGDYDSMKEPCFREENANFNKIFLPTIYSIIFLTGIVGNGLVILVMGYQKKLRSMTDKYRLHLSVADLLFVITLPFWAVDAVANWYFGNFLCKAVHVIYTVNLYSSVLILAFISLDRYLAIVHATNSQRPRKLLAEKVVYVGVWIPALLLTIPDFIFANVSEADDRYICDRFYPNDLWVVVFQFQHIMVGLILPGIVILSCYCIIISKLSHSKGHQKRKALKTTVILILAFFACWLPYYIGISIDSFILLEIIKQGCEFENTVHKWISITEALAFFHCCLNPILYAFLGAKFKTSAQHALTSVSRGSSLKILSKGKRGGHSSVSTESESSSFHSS
Experimental: Calcium flux assay was performed by Eurofins or Bristol Myers Squibb. The method used by Eurofins is described below.
Compound plate preparation: Vehicle controls and positive controls were prepared to ensure all assays were properly controlled. All wells were prepared using the Eurofins Discovery Services GPCRProfiler® Assay Buffer. The GPCRProfiler® Assay Buffer was a modified Hanks Balanced Salt Solution (HBSS) where HBSS was supplemented to contain 20 mM HEPES and 2.5 mM Probenecid at pH 7.4.
Agonist assay (first addition): Compound(s) supplied were plated in duplicate for each concentration assayed. During the agonist assay, the concentration(s) reflects accommodation for the dilution of compound during the antagonist assay. Please see below for further details. […] The reference agonist for each GPCR was included at Emax (the concentration where the reference agonist elicited a maximal response). The agonist assay was conducted on a FLIPR^TETRA instrument where the test compound(s), vehicle controls, and reference agonist were added to the assay plate after a fluorescence/luminescence baseline was established. The agonist assay was a total of 180 seconds and was used to assess each compound's ability to activate each GPCR assayed. Upon completion of the three minute agonist assay, the assay plate was incubated at 25° C. for a further two minutes. After the incubation period the antagonist assay was initiated.
The antagonist assay was conducted using the same assay plate that was used for the agonist assay. The antagonist assay was conducted on a FLIPR^TETRA instrument where vehicle controls and challenge concentration of reference agonist were added to appropriate wells. The antagonist assay was a total of 180 seconds and was used to assess each compound's ability to inhibit each GPCR assayed.
Data Processing—All plates were subjected to appropriate baseline corrections. Once baseline corrections were processed, maximum fluorescence/luminescence values were exported, and data manipulated to calculate percentage activation and percentage inhibition. […] Data manipulation calculation is as followed: ((Max RLU)−(Baseline Avg.))/((Positive Avg.)−(Baseline Avg.)).

Row | Papp at 4 h (PAMPA assay) [×10⁻⁶ cm/s] | Liver Microsomes % rem. @ 10 min. H [1] [%] | IC50 (CYP2D6) [µM] | IC50 (CXCR4) [nM] | half-life at 3 µM [1] [min] | SMILES
1 | 10.6 | 48.5 | > 20 | 31 |  | CN(C[C@H]1Cc2c(cccc2N2CC3COC2C3)CN1)[C@H]1CCCc2cccnc21 (stereo in doubt) [EMU-324, (S)—N—(((R)-5-((1S,4R)-2-oxa-6-azabicyclo[2.2.1]heptan-6-yl)-1,2,3,4-tetrahydroisoquinolin-3-yl)methyl)-N-methyl-5,6,7,8-tetrahydroquinolin-8-amine]
2 | 14.6 |  | > 50 | 205 | 288 | CN1CCN(c2cccc3c2C[C@@H](CN(C)[C@H]2CCCc4cccnc42)NC3)C(=O)C1 [EMU-251, 4-methyl-1-((S)-3-((methyl((S)-5,6,7,8-tetrahydroquinolin-8-yl)amino)methyl)-1,2,3,4-tetrahydroisoquinolin-5-yl)piperazin-2-one]
3 | 11.8 |  | 8.1 | 52 | 37 | CN(C[C@H]1Cc2c(cccc2N2CCNC(=O)C2)CN1)[C@H]1CCCc2cccnc21 [EMU-254, 4-((R)-3-((methyl((S)-5,6,7,8-tetrahydroquinolin-8-yl)amino)methyl)-1,2,3,4-tetrahydroisoquinolin-5-yl)piperazin-2-one]
4 | 13.6 |  | 43.1 | 224 | 16 | CN1CCN(c2cccc3c2C[C@H](CN(C)[C@H]2CCCc4cccnc42)NC3)CC1=O [EMU-255, 1-methyl-4-((R)-3-((methyl((S)-5,6,7,8-tetrahydroquinolin-8-yl)amino)methyl)-1,2,3,4-tetrahydroisoquinolin-5-yl)piperazin-2-one]
5 | 14.6 |  | 4.47 | 990 | 4.9 | CCOC(=O)N1CCN(c2cccc3c2C[C@H](CN(C)[C@H]2CCCc4cccnc42)NC3)CC1 [EMU-261, ethyl 4-((R)-3-((methyl((S)-5,6,7,8-tetrahydroquinolin-8-yl)amino)methyl)-1,2,3,4-tetrahydroisoquinolin-5-yl)piperazine-1-carboxylate]
6 | 14.6 |  | > 50 | 56 | 16 | CC(=O)N1CCN(c2cccc3c2C[C@H](CN(C)[C@H]2CCCc4cccnc42)NC3)CC1 [EMU-262, 1-(4-((R)-3-((methyl((S)-5,6,7,8-tetrahydroquinolin-8-yl)amino)methyl)-1,2,3,4-tetrahydroisoquinolin-5-yl)piperazin-1-yl)ethan-1-one]
7 | 13.4 |  | 34.4 | 312 | 10 | CN(C[C@H]1Cc2c(cccc2N2CCN(S(C)(=O)=O)CC2)CN1)[C@H]1CCCc2cccnc21 [EMU-263, (S)—N-methyl-N—(((R)-5-(4-(methylsulfonyl)piperazin-1-yl)-1,2,3,4-tetrahydroisoquinolin-3-yl)methyl)-5,6,7,8-tetrahydroquinolin-8-amine]
8 | 16.7 | 74.7 |  | 13 |  | CN1CCN(c2cccc3c2CC(CN(C)[C@H]2CCOc4cccnc42)NC3)CC1 (stereo partly drawn) [EMU-320, (4S)—N-methyl-N-((5-(4-methylpiperazin-1-yl)-1,2,3,4-tetrahydroisoquinolin-3-yl)methyl)-3,4-dihydro-2H-pyrano[3,2-b]pyridin-4-amine]
9 |  | 23.7 | 4.1 | 4.4 |  | CN(C[C@H]1Cc2c(cccc2N2CCN3CCOC[C@H]3C2)CN1)[C@H]1CCCc2cccnc21 [EMU-343, (S)—N—(((R)-5-((R)-hexahydropyrazino[2,1-c][1,4]oxazin-8(1H)-yl)-1,2,3,4-tetrahydroisoquinolin-3-yl)methyl)-N-methyl-5,6,7,8-tetrahydroquinolin-8-amine]

From patent US12692259B2, “Morpholine-containing and piperazine-containing CXCR4 modulators and uses related thereto” (Emory University, priority 2021, dated 2026)
